Test results as given in PubChem BioAssay AID1963865 (Molecular Pharmacology Branch, DTP, NCI, 2024).

Test system: KRAS PDC multicell spheroid viability
Assay: Anticancer human tumor 825966-067-R-J1-PDC patient-derived colon carcinoma cell line growth inhibition [KRAS2]
Settings: for IC50: curve of first compound; for viability, T/C: stronger effect = lower value
Summary of the method: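 Combination screen of spheroid viability in tumor-cell co-cultures with endothelial (HUVEC) and mesenchymal stem cell stroma. Each agent was tested in half-log dilutions, topping at clinical Cmax or at 10 microM without a known Cmax.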

[1] = second compound 0.1 µM, first compound 0.0316 µM
[2] = second compound 0.1 µM, first compound 0.1 µM
[3] = second compound 0.1 µM, first compound 0.316 µM
[4] = second compound 0.1 µM, first compound 1 µM
[5] = second compound 0.1 µM, first compound 3.16 µM
[6] = second compound 0.1 µM, first compound 10 µM
[7] = second compound 0.316 µM, first compound 0.0316 µM
[8] = second compound 0.316 µM, first compound 0.1 µM
[9] = second compound 0.316 µM, first compound 0.316 µM
[10] = second compound 0.316 µM, first compound 1 µM
[11] = second compound 0.316 µM, first compound 3.16 µM
[12] = second compound 0.316 µM, first compound 10 µM
[13] = second compound 1 µM, first compound 0.0316 µM
[14] = second compound 1 µM, first compound 0.1 µM
[15] = second compound 1 µM, first compound 0.316 µM
[16] = second compound 1 µM, first compound 1 µM
[17] = second compound 1 µM, first compound 3.16 µM
[18] = second compound 1 µM, first compound 10 µM
[19] = second compound 3.16 µM, first compound 0.0316 µM
[20] = second compound 3.16 µM, first compound 0.1 µM
[21] = second compound 3.16 µM, first compound 0.316 µM
[22] = second compound 3.16 µM, first compound 1 µM
[23] = second compound 3.16 µM, first compound 3.16 µM
[24] = second compound 3.16 µM, first compound 10 µM
[25] = second compound 10 µM, first compound 0.0316 µM
[26] = second compound 10 µM, first compound 0.1 µM
[27] = second compound 10 µM, first compound 0.316 µM
[28] = second compound 10 µM, first compound 1 µM
[29] = second compound 10 µM, first compound 3.16 µM
[30] = second compound 10 µM, first compound 10 µM
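Note: spheroids exposed to compounds for 7 days.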
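Throughout, for viability, T/C: 100% = DMSO vehicle control viability.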

COC(=O)c1ccc2c(C(=Nc3ccc(N(C)C(=O)CN4CCN(C)CC4)cc3)c3ccccc3)c(O)[nH]c2c1 + COc1cc2nc(C)nc(NC(C)c3cc(N)cc(C(F)(F)F)c3)c2cc1OC1CCOC1
IC50 (second compound 0.1 µM): 1670 nM | IC50 (second compound 0.316 µM): 1570 nM | IC50 (second compound 1 µM): 836 nM | IC50 (second compound 3.16 µM): 592 nM | IC50 (second compound 10 µM): < 31.6 nM | viability, T/C [1]: 89.6% | viability, T/C [2]: 95.6% | viability, T/C [3]: 81.4% | viability, T/C [4]: 92.9% | viability, T/C [5]: 0.3% | viability, T/C [6]: 0.16% | viability, T/C [7]: 94.4% | viability, T/C [8]: 79.9% | viability, T/C [9]: 82.4% | viability, T/C [10]: 81.8% | viability, T/C [11]: 0.33% | viability, T/C [12]: 0.13% | viability, T/C [13]: 88.1% | viability, T/C [14]: 98.1% | viability, T/C [15]: 92.3% | viability, T/C [16]: 42.1% | viability, T/C [17]: 0.16% | viability, T/C [18]: 0.13% | viability, T/C [19]: 95% | viability, T/C [20]: 103% | viability, T/C [21]: 101% | viability, T/C [22]: 8.39% | viability, T/C [23]: 0.1% | viability, T/C [24]: 2% | viability, T/C [25]: 9.43% | viability, T/C [26]: 10.3% | viability, T/C [27]: 1.07% | viability, T/C [28]: 0.34% | viability, T/C [29]: 0.13% | viability, T/C [30]: 0.58%

O=C(c1cc(Cc2n[nH]c(=O)c3ccccc23)ccc1F)N1CCN(C(=O)C2CC2)CC1 + COc1cc2nc(C)nc(NC(C)c3cc(N)cc(C(F)(F)F)c3)c2cc1OC1CCOC1
IC50 (second compound 0.1 µM): > 10000 nM | IC50 (second compound 0.316 µM): > 10000 nM | IC50 (second compound 1 µM): > 10000 nM | IC50 (second compound 3.16 µM): > 10000 nM | IC50 (second compound 10 µM): > 10000 nM | viability, T/C [1]: 84.2% | viability, T/C [2]: 91.5% | viability, T/C [3]: 92.3% | viability, T/C [4]: 77.2% | viability, T/C [5]: 69.3% | viability, T/C [6]: 75% | viability, T/C [7]: 80.3% | viability, T/C [8]: 79.2% | viability, T/C [9]: 95.5% | viability, T/C [10]: 80.5% | viability, T/C [11]: 98.9% | viability, T/C [12]: 95.9% | viability, T/C [13]: 79.4% | viability, T/C [14]: 81.5% | viability, T/C [15]: 69.1% | viability, T/C [16]: 87% | viability, T/C [17]: 68.1% | viability, T/C [18]: 89.6% | viability, T/C [19]: 104% | viability, T/C [20]: 115% | viability, T/C [21]: 117% | viability, T/C [22]: 113% | viability, T/C [23]: 96.8% | viability, T/C [24]: 88.8% | viability, T/C [25]: 115% | viability, T/C [26]: 121% | viability, T/C [27]: 122% | viability, T/C [28]: 117% | viability, T/C [29]: 72% | viability, T/C [30]: 89.5%
